Laboratory results taken from patent US20070275953A1 (priority 2003, published 2007).
Where two headings read alike, the source gives them in different places.

Assays:
Assay type in all cases: cell-based
[1] = tested on: HIV-1 mutant Ile108RT in TZM-bl cells; experiment: Anti-HIV assay on TZM-bl cells, Ile108RT mutant; details: read-out: EC50 Ile108RT TZM-bl
Excerpt: (§1) In order to introduce mutation(s) at the level of the pol gene coding for the RT in the pNL4-3 plasmid containing the complete viral genome (Adachi et al., 1986. J. Virol., Vol. 59 p 284-291) we used the “Quick change mutagenesis kit” (Stratagene). The following mutations were separately introduced in pNL4-3: L100I, K103N, V108I, Y181C, Y188C, and the double mutations K103N/V108I. These mutations were chosen because of the resistance that they confer to existing NNRTI. The production procedure of the mutant viral stocks is identical to the one described above.
(§2) Anti-HIV activity and cytotoxicity of the compounds were tested on the TZM-b1 cell line. The TZM-b1 cell line (Wei et al. 2002. Antimicrob. Agents Chemother. Vol. 46, p 1896-1905) was received from the NIH AIDS Research and Reference Reagent Program. These cells were cultured in complete DMEM medium supplemented with 10% fetal bovine serum (FBS), and 1% Penicillin/Streptomycin. Exponentially growing cells were trypsinized, centrifuged and split twice weekly at 5 10^4 cells/ml.
(§3) The anti-HIV assay with TZM-b1 cells is essentially the same as described above with P4 cells. The main difference between the two cell lines is that the TZM-b1 cells express at their surface both the CD4 and CCR5 proteins, acting as receptor and co-receptor for HIV entry, respectively (Wei et al. 2002. Antimicrob. Agents Chemother. Vol. 46, p 1896-1905). This feature makes the cells very sensitive to infection by the virus. The TMZ-b1 cells were infected with equal amount of cell-free virus, corresponding to 10 ng of HIV p24 antigen. This amount is ten times lower than the amount used to infect the P4 cells.

[2] = tested on: HIV-1 mutant Cys181RT in TZM-bl cells; experiment: Anti-HIV assay on TZM-bl cells, Cys181RT mutant; details: read-out: EC50 Cys181RT TZM-bl
Excerpt: as §1, §2, §3

[3] = tested on: HIV-1 mutant Cys188RT in MT4 cells; experiment: Anti-HIV assay on MT4 cells, Cys188RT mutant
Excerpt: as §1
(§4) Anti-HIV activity of the compounds was tested on MT-4 cell line. The MT-4 cell line (Larder et al. 1989. Sciences, Vol. 243 p 1731) was received from the NIH AIDS Research and Reference Reagent Program. These cells were cultured in RPMI medium supplemented with 10% fetal bovine serum (FBS), and 1% Penicillin/Streptomycin. The cultures were split regularly to keep cells densities between 0.3 to 1.2 10^6 cells/ml.
(§5) The MT-4 cells rapidly die upon infection by HIV. In this system there is an inverse correlation between cells survival and the amount of viral replication.
(§6) Briefly, in the anti-HIV assay exponentially growing MT-4 cells were infected with HIV-1. 100 μl of infected MT-4 cells were seeded in 96-well plate at a concentration of 0.4 10^5 cells/ml, and 100 μl of the different drugs dilutions were added to the cells. After 4 days of incubation at 37° C., 5% CO2, cells survival was measured using MTS (3-(4-5-dimethylthiazol-2-yl)-5-(−(3-carboxymethoxyphenyl)-2-(4-sulfophenyl)-2H-tetrazolium) assays. This compound is reduced by viable cells in a colored soluble formazan salt.
(§7) The absorbance was measured on a Benchmark™ Microplate Reader (Biorad) (λ=490 nm) and compared with 12 cell control replicates (nor virus nor drug added) and 12 virus control wells (no drug added). Each assay was performed a minimum of three times. The 50% effective concentration (EC50) was calculated from each dose response curve using the CurveExpert 1.3 software.

[4] = tested on: HIV-1 mutant Asn103/Ile108RT in MT4 cells; experiment: Anti-HIV assay on MT4 cells, Asn103/Ile108RT double mutant
Excerpt: as §1, §4, §5, §6, §7

[5] = tested on: HIV-1 mutant Ile100RT in MT4 cells; experiment: Anti-HIV assay on MT4 cells, Ile100RT mutant
Excerpt: as §1, §4, §5, §6, §7

[6] = tested on: HIV-1 mutant Asn103/Ile108RT in P4 cells; experiment: Anti-HIV assay on P4 cells, Asn103/Ile108RT double mutant
Excerpt: as §1
Anti-HIV activity and cytotoxicity of the compounds were tested on a P4 cell line. The P4 cell line (Clavel & Charneau, 1994. J. Virol., Vol. 68 p 1179-1185) was provided by Dr. François Clavel (Unité de recherche antivirale de l'hôpital Xavier Bichat Paris: Inserm). The P4 cells were cultured in complete DMEM medium supplemented with 10% fetal bovine serum (FBS), 0.5% of Penicillin/Streptomycin and G418 at 0.5 mg/ml. Exponentially growing cells were trypsinized, centrifuged and split twice weekly at 5.10^4 cells/ml.
The P4 cells are HIV-infectible Hela-CD4 cells that carry the bacterial lacZ gene under the control of the HIV-1 long terminal repeat (LTR). In this cell line, transcription of the LacZ gene is driven by the HIV-1 LTR. As such, the cytoplasmic accumulation of β-galactosidase is strictly dependent on the presence of the HIV transactivator Tat produced during the intracellular viral replication (Clavel & Charneau, 1994. J. Virol., Vol. 68, p. 1179-1185). In other words, in this system, the expression level of the β-galactosidase gene is proportional to the viral replication.
Briefly, in the anti-HIV assay 100 Ål of P4 cells were plated in 96-well plate at a concentration of 0.4 10^5 cells/ml and incubated at 37° C., 5% CO2. After 48 h, the medium was removed and 100 Ål of the different drugs dilutions were added to the cells. Four hours after the addition of the drugs all cells were infected with equal amount of cell-free virus, corresponding to 100 ng of HIV p24 antigen. After 48 h of incubation at 37° C., 5% CO2, β-galactosidase activity was measured using chlorophenol red-β-D-galactopyranoside assays.
as §7, with “(λ=570” for “(λ=490”, “(no” for “(nor”, “or” for “nor”, “(Ec50)” for “(EC50)”, “software. As Nevirapine activity corresponds to its published values (10-100 nM), the data are consistent with other measures of viral replication.” for “software.”

[7] = tested on: HIV-1 mutant Ile108RT in MT4 cells; experiment: Anti-HIV assay on MT4 cells, Ile108RT mutant
Excerpt: as §1, §4, §5, §6, §7

[8] = Human immunodeficiency virus 1, TZM-bl
[9] = Human immunodeficiency virus 1, MT4, read-out: EC50 Cys188RT MT4
[10] = Human immunodeficiency virus 1, MT4, read-out: EC50 Asn103/Ile108RT MT4
[11] = Human immunodeficiency virus 1, MT4, read-out: EC50 Ile100RT MT4
[12] = Human immunodeficiency virus 1, read-out: EC50 Asn103/Ile108RT F4
[13] = Human immunodeficiency virus 1, MT4, read-out: EC50 Ile108RT MT4
[14] = MT4, double mutant Asn103/Ile108RT
[15] = column head prints F4, double mutant Asn103/Ile108RT, read-out: EC50 Asn103/Ile108RT F4
[16] = MT4, mutant Cys188RT, read-out: EC50 Cys188RT MT4
[17] = MT4, mutant Ile108RT, read-out: EC50 Ile108RT MT4

CCOC(=O)c1c(OC2CC(C)CC(C)C2)c(CC)c(C)[nH]c1=O (single isomer, unassigned) [Z37inv] was tested. Which EC50 ([1]; TZM-bl, mutant Ile108RT) did it give?
Its EC50 is 1090 nM.

And the EC50 ([2]; TZM-bl, mutant Cys181RT)?
The EC50 was 2540 nM.

O=C1Nc2ccc(Cl)cc2[C@@](C#CC2CC2)(C(F)(F)F)O1 [Efavirenz, reference compound] was tested. Which EC50 [1, 8] did it give?
The EC50 was < 6 nM.

And the EC50 [3, 9]?
The EC50 was 1 nM.

And the EC50 [4, 10]?
Its EC50 is 1190 nM.

What about the EC50 [5, 11] of the same molecule?
Its EC50 is 178 nM.

What about the EC50 [2, 8] of the same molecule?
Its EC50 is < 1 nM.

What about the EC50 [6, 12] of the same molecule?
The EC50 was 9 nM.

And the EC50 [7, 13]?
Its EC50 is < 1 nM.

How did the EC50 [1, 8] turn out when Cc1ccnc2c1NC(=O)c1cccnc1N2C1CC1 [Nevirapine, reference compound] was run?
The EC50 was 91 nM.

What about the EC50 [3, 9] of the same molecule?
Its EC50 is > 5000 nM.

And the “EC50 Asn103/Ile108RT MT4” value [4, 14]?
Its value is “inactive”.

And the EC50 [5, 11]?
The EC50 was 2060 nM.

What about the EC50 [2, 8] of the same molecule?
Its EC50 is 8300 nM.

And the EC50 [6, 12]?
Its EC50 is 6250 nM.

And the EC50 [7, 13]?
The EC50 was 1270 nM.

How did the EC50 ([2]; TZM-bl, mutant Cys181RT) turn out when CCc1c(C)[nH]c(=O)c(CO)c1OC1CC(C)CC(C)C1 (stereo not shown) [Z45inv] was run?
The EC50 was 3200 nM.

And the EC50 [6, 15]?
Its EC50 is 19200 nM.

Which results are given for CCc1c(C)[nH]c(=O)c([N+](=O)[O-])c1OC1CC(C)CC(C)C1 (stereo not shown) [Z91inv, 3-nitro-5-ethyl-6-methyl-4-[(3,5-dimethylcyclohexyl)oxy]pyridine-2(1H)-one]?
EC50 [1, 8]: < 1 nM; EC50 [3, 9]: 43 nM; EC50 [4, 10]: 9900 nM; EC50 [5, 11]: 1380 nM; EC50 [2, 8]: 58 nM; EC50 [6, 12]: 180 nM; EC50 [7, 13]: 72 nM

What does the source list for CCc1c(C)[nH]c(=O)c(CSC(C)=O)c1OC1CC(C)CC(C)C1 (stereo not shown) [Z114]?
EC50 ([1]; TZM-bl, mutant Ile108RT): 12 nM; EC50 [3, 16]: 1680 nM; EC50 Asn103/Ile108RT MT4 [4, 14]: inactive; EC50 Ile100RT MT4 ([5]; MT4, mutant Ile100RT): Inactive; EC50 ([2]; TZM-bl, mutant Cys181RT): 411 nM; EC50 [6, 15]: 1930 nM; EC50 [7, 17]: 12000 nM

CCc1c(C)[nH]c(=O)c(N(C)C)c1OC1CC(C)CC(C)C1 (stereo not shown) [Z150, 3-(dimethylamino)-5-ethyl-6-methyl-4-[(3,5-dimethylcyclohexyl)oxy]pyridine-2(1H)-one] was tested. Which EC50 [1, 8] did it give?
Its EC50 is 4 nM.

What about the EC50 [3, 9] of the same molecule?
The EC50 was 6 nM.

What about the EC50 [4, 10] of the same molecule?
Its EC50 is 958 nM.

And the EC50 [5, 11]?
The EC50 was 87 nM.

And the EC50 [2, 8]?
The EC50 was 86 nM.

And the EC50 [6, 12]?
Its EC50 is 27 nM.

And the EC50 [7, 13]?
Its EC50 is < 1 nM.

Which results are given for CCc1c(C)[nH]c(=O)c(CN=[N+]=[N-])c1OC1CC(C)CC(C)C1 (stereo not shown) [Z153]?
EC50 ([1]; TZM-bl, mutant Ile108RT): 1 nM; EC50 [3, 16]: 33 nM; EC50 ([4]; MT4, double mutant Asn103/Ile108RT, read-out: EC50 Asn103/Ile108RT MT4): 3480 nM; EC50 ([5]; MT4, mutant Ile100RT, read-out: EC50 Ile100RT MT4): 187 nM; EC50 ([2]; TZM-bl, mutant Cys181RT): 83 nM; EC50 [6, 15]: 70 nM; EC50 [7, 17]: 8 nM

How did the EC50 ([1]; TZM-bl, mutant Ile108RT) turn out when CCc1c(C)[nH]c(=O)c(C)c1OC1CC(C)CC(C)C1 (stereo not shown) [Z154] was run?
Its EC50 is 14 nM.

And the EC50 ([2]; TZM-bl, mutant Cys181RT)?
Its EC50 is 288 nM.

And the EC50 [6, 15]?
The EC50 was 88 nM.
